“Also recorded” adds a separate entry of the source.
Legend:
[1] = test system: IL-8 release in d-U937 cells; test: LPS-induced IL-8 release in d-U937 cells; assay type: cell-based, human; conditions: Homo sapiens, dU937
Summary of the method: (§1)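 Sandwich ELISA of TNFα and IL-8 in supernatants after 4 hr 0.1 μg/mL LPS (E. coli O111:B4) challenge of U937 cells differentiated with PMA 100 ng/ml for 48–72 hr, compound added 2 hr beforehand. IL-8: IC50 from inhibition versus vehicle; TNFα: REC50 from inhibition as percentage of 10 μg/mL BIRB796 effect.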

[2] = test system: TNFα release in d-U937 cells; test: LPS-induced TNFα release in d-U937 cells; assay type: cell-based, human; conditions: Homo sapiens, dU937, relative to 10 μg/mL BIRB796, read-out: LPS/TNFα REC50 d-U937
Summary of the method: as §1

[3] = test system: TNFα release in THP-1 cells; test: LPS-induced TNFα release in THP-1 cells; assay type: cell-based, human; conditions: Homo sapiens
Summary of the method: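 IC50 derived from concentration-response of TNFα inhibition relative to vehicle, with TNFα quantified by sandwich ELISA in supernatants. THP-1 cells were challenged 4 hr with LPS (E. coli, 3 μg/mL).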

[4] = target: T1, p38 MAPKα isoform (MAPK14) (Homo sapiens, UniProt Q16539); test: Enzyme inhibition assay (FRET, Z-LYTE), p38 MAPKα via MAPKAP-K2 activation; assay type: biochemical; conditions: read-out: Enzyme Inhibition IC50 p38α
T1 construct: purchased Invitrogen
Summary of the method: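 Z-LYTE FRET format, in which protease cleaves only non-phosphorylated peptide, read after 1 h development. Compound was mixed with p38 MAPKα for 2 h at RT, and inhibition was gauged from MAPKAP-K2 activation/phosphorylation rather than directly. Percent inhibition against an uninhibited control was fitted to give IC50.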

[5] = test system: Balb/c mice; test: LPS-induced neutrophil accumulation in mice; assay type: in vivo; conditions: for % inhibition of Influx / Neutrophil numbers in BAL 8 h pre-dose: 0.2 mg/mL, 8 h pre-dose; for inhibitory effects versus neutrophil influx into the BALF: dosed 8 hr before the inflammatory stimulus
Protocol: LPS-Induced Neutrophil Accumulation in Mice
Non-fasted Balb/c mice were dosed by the intra tracheal route with either vehicle, or the test substance at the indicated times (within the range 2-8 hr) before stimulation of the inflammatory response by application of an LPS challenge. At T=0, mice were placed into an exposure chamber and exposed to LPS. After a further 8 hr the animals were anesthetized, their tracheas cannulated and BALF extracted by infusing and then withdrawing from their lungs 1.0 mL of PBS via the tracheal catheter. Total and differential white cell counts in the BALF samples were measured using a Neubaur haemocytometer. Cytospin smears of the BALF samples were prepared by centrifugation at 200 rpm for 5 min at RT and stained using a DiffQuik stain system (Dade Behring). Cells were counted using oil immersion microscopy.

[6] = test system: Differentiated U937 cells; test: Cell viability MTT assay; assay type: cell-based, human; conditions: negative = apparent increase in viability; for MTT Assay (Viability) 4 h d-U937, percentage loss of cell viability: 4 hr in 5% FCS; for MTT Assay (Viability) 24 h d-U937, percentage loss of cell viability: 24 h in 10% FCS
Summary of the method: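 Differentiated U937 cells pre-incubated with compound either 4 hr in 5% FCS or 24 h in 10% FCS, then 1 hr MTT. Formazan dissolved in DMSO, absorbance at 550 nm. Percentage viability loss relative to 0.5% DMSO vehicle; apparent increases appear as negative percentages.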

[7] = target: T2, p38 MAPKγ (MAPK12) (Homo sapiens, UniProt P53778); test: Enzyme inhibition assay (FRET, Z-LYTE), p38 MAPKγ; assay type: biochemical; conditions: read-out: Enzyme Inhibition IC50 p38γ
T2 construct: purchased Invitrogen
T2 sequence (P53778 1-367): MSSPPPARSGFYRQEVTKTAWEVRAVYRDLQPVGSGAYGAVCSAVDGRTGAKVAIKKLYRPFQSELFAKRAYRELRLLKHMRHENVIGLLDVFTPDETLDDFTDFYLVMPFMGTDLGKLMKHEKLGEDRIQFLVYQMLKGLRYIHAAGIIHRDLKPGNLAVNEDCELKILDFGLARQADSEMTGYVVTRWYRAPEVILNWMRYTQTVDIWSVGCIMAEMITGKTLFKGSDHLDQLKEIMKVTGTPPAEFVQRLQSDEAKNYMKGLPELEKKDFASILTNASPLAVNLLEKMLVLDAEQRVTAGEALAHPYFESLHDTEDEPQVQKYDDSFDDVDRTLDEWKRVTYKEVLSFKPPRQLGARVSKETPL
Summary of the method: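 Z-LYTE FRET readout: after 1 h kinase reaction (ATP 100 μM, peptide 2 μM) following 2 h RT enzyme–compound preincubation in HEPES, protease cleaves only unphosphorylated peptide. Percent inhibition from donor/acceptor ratio relative to control; IC50 fitted from the curve.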

[8] = test system: ICAM-1 induction in BEAS2B cells; test: Poly I:C-induced ICAM-1 induction in BEAS2B cells; assay type: cell-based, human; conditions: Homo sapiens, BEAS-2B, read-out: PolyIC/ICAM1 IC50 BEAS2B
Summary of the method: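 IC50 reflects inhibition of cell-surface ICAM-1 relative to vehicle, read by ELISA (OD450 against 655 nm) and divided by crystal violet OD595 for cell number. Readings were taken 18 hr after transfection of 1 μg/mL poly I:C into BEAS2B cells. Compound was added 2 hr before stimulation.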

[9] = test system: A/J mice; test: Cigarette smoke model; assay type: in vivo; conditions: 1.75 μg/mouse (35 μL, bid, i.n.), cigarette smoke model
Protocol: A/J mice (males, 5 weeks old) were exposed to cigarette smoke (4% cigarette smoke, diluted with air) for 30 min/day for 11 days using a Tobacco Smoke Inhalation Experiment System for small animals (Model SIS-CS; Sibata Scientific Technology, Tokyo, Japan). Test substances were administered intra-nasally (35 μL of solution in 50% DMSO/PBS) twice daily for 3 days after the final cigarette smoke exposure. At 12 hr after the last dosing, each of the animals was anesthetized, the trachea cannulated and bronchoalveolar lavage fluid (BALF) was collected. The numbers of alveolar macrophages and neutrophils were determined by FACS analysis (EPICS® ALTRA II, Beckman Coulter, Inc., Fullerton, Calif., USA) using anti-mouse MOMA2 antibody (macrophage) or anti-mouse 7/4 antibody (neutrophil).
The data for cell numbers are shown as the mean±SEM.

T1 sequence (Q16539 whole entry, canonical isoform): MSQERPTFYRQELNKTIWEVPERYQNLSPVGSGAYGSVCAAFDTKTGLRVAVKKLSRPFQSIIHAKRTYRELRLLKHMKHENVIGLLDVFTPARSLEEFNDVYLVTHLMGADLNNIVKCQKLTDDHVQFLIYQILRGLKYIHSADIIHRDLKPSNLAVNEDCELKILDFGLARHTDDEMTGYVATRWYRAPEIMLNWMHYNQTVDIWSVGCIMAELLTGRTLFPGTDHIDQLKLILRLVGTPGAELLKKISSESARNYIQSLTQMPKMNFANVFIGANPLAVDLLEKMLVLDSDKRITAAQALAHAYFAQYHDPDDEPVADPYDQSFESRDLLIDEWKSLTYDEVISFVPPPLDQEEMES

SMILES | IC50 [1] | EC50 [2] | IC50 [3] | IC50 [4] | % inhibition of Influx ([5]; Table 5) | Neutrophil numbers in BAL 8 h pre-dose ([5]; Table 5) | inhibitory effects versus neutrophil influx into the BALF [5] | MTT Assay (Viability) 4 h d-U937, percentage loss of cell viability [6] | MTT Assay (Viability) 24 h d-U937, percentage loss of cell viability [6] | IC50 [7] | IC50 [8] | % inhibition of Influx ([5]; Table 6) | Neutrophil numbers in BAL 8 h pre-dose ([5]; Table 6) | inhibition of LPS-induced neutrophil accumulation ([5]; 1.75 μg/mouse) | neutrophil or macrophage accumulation into airways [9]
Cc1ccc(-n2nc(C(C)(C)C)cc2NC(=O)Nc2ccc(Oc3cc(NC(=O)NCCN(C)C)ncn3)c(Cl)c2Cl)cc1 [Example 24, 1-(3-tert-Butyl-1-p-tolyl-1H-pyrazol-5-yl)-3-(2,3-dichloro-4-(6-(3-(2-(dimethylamino)ethyl)ureido)pyrimidin-4-yloxy)phenyl)urea] | 1.1 nM | 1.7 nM | 1.7 nM | 5.7 nM | 9% | 15.71 ± 2.48 × 10^5/mL | inhibitory effects | −17.7% | 39.5% | 46.3 nM | 10.5 nM | – | – | – | –
COCC(=O)Nc1cc(Oc2ccc(NC(=O)Nc3cc(C(C)(C)C)nn3-c3ccc(OC)cc3)c(Cl)c2Cl)ncn1 [Example 91, N-(6-(4-(3-(3-tert-butyl-1-(4-methoxyphenyl)-1H-pyrazol-5-yl)ureido)-2,3-dichlorophenoxy)pyrimidin-4-yl)-2-methoxyacetamide] | 5.9 nM | 1.2 nM | 1.6 nM | 58.3 nM | 33% | 11.67 ± 2.07 × 10^5/mL | inhibitory effects; also recorded: particularly marked | −47.2% | 6.9% | 162 nM | 2.9 nM | – | – | – | –
CC(C)(C)c1cc(NC(=O)Nc2ccc(Oc3ccnc(NC(=O)N4CCCC4)c3)c(Cl)c2Cl)n(-c2ccc(O)cc2)n1 [Example 75, N-(4-(4-(3-(3-tert-butyl-1-(4-hydroxyphenyl)-1H-pyrazol-5-yl)ureido)-2,3-dichlorophenoxy)pyridin-2-yl)pyrrolidine-1-carboxamide] | 1.7 nM | 1.3 nM | 0.4 nM | 147 nM | – | – | inhibitory effects; also recorded: particularly marked | −33.7% | 6.6% | 181 nM | 0.3 nM | 23% | 10.87 ± 2.13 × 10^5/mL | – | –
CN(C)[C@H]1CCN(C(=O)Nc2cc(Oc3ccc(NC(=O)Nc4cc(C(C)(C)C)nn4-c4ccc(O)cc4)c(Cl)c3Cl)ccn2)C1 [Example 80, (S)-N-(4-(4-(3-(3-tert-butyl-1-(4-hydroxyphenyl)-1H-pyrazol-5-yl)ureido)-2,3-dichlorophenoxy)pyridin-2-yl)-3-(dimethylamino) pyrrolidine-1-carboxamide] | 3.6 nM | 0.8 nM | 0.6 nM | 12.3 nM | 12% | 15.22 ± 2.34 × 10^5/mL | inhibitory effects | −3.0% | 15.7% | 59.3 nM | 2.3 nM | – | – | – | –
CCC(=O)O[C@]1(C(=O)SCF)[C@H](C)C[C@H]2[C@@H]3C[C@H](F)C4=CC(=O)C=C[C@]4(C)[C@@]3(F)[C@@H](O)C[C@@]21C [fluticasone propionate, reference compound] | – | – | – | – | – | – | – | – | – | – | – | – | – | > 80% | did not inhibit
